Patent US11629164B2, “Gemcitabine prodrugs” (NuCana plc, priority 2014, dated 2023)
In brackets after ≈: the same amount, converted by molar mass. Like-named read-outs stand apart in the source and are kept apart here.

Key:
[1] = aqueous solubility of NUC-1031 (background statement); format: physicochemical; conditions: regardless of salt content or pH
[2] = solubility in pharmaceutically acceptable solvent systems, HPLC assay of filtrate; format: physicochemical
Description: The solubilities of NUC-1031 and its diastereoisomers were determined in a range of pharmaceutically acceptable solvent systems. The protocol adopted was as follows:
A small volume, 1-2 mL, of each solvent system was prepared and a weight of the compound in question was added. The solutions were stirred for approximately 4 hours and then […] membrane filtered. The concentration of the compound in question in the filtrate was then determined by HPLC assay.

[3] = metabolic stability in pooled human cryopreserved hepatocyte suspension, HPLC-MS/MS; format: in vitro ADME; conditions: both sexes, human, hepatocytes
Description: (§1) The clearance and bioavailability of most medicines are strongly influenced by their first-pass metabolism in the liver. It is possible to estimate the relative hepatic “metabolic stability” in vitro by incubating compounds with cryopreserved hepatocytes and determining the initial vs. the final amount of the test compound in the incubation mixtures.
(§2) The following procedure is an HPLC-MS/MS assay using pooled human cryopreserved hepatocyte suspension.
(§3) Human hepatocytes: mixed gender and pool of 10
(§4) Final cell density: 1 million (10^6) viable cells/mL
(§5) Pooled cryopreserved hepatocytes are thawed, washed, and resuspended in Krebs-Heinslet buffer (pH 7.3). The reaction is initiated by adding the test compound (1 μM final concentration) into cell suspension and incubated in a final volume of 100 μL on a flat-bottom 96-well plate for 0 minute and 120 minutes, respectively, at 37° C./5% CO2. The reaction is stopped by adding 100 μL of acetonitrile into the incubation mixture. Samples are then mixed gently and briefly on a plate shaker, transferred completely to a 0.8 mL V-bottom 96-well plate, and centrifuged at 2550×g for 15 minutes at room temperature. Each supernatant (150 μL) is transferred to a clean cluster tube, followed by HPLC-MS/MS analysis on a Thermo Electron triple-quadrupole system.
(§6) This assay was modified for half-life determination. In this case, the sampling time points are 0, 30, 60, 90, and 120 minutes.
(§7) Four reference compounds (1 μM) were tested simultaneously with the test compounds.
(§8) Samples are analyzed via (RP)HPLC-MS/MS using selected reaction monitoring (SRM). The HPLC conditions consist of an HP1100 binary pump with autosampler, a C-12 mixed-mode, 2×20 mm column, and a gradient.
(§9) Peak areas corresponding to the test compound are recorded by HPLC-MS/MS. The metabolic stability, expressed as percent of the test compound remaining, is calculated by comparing the peak areas of the test compound at 2 hours to time zero. In case of half-life determination, the half-life is estimated from the slope of the initial linear range of the logarithmic curve of the test compound remaining (%) vs. time, assuming first order kinetics.

[4] = test system: pooled human cryopreserved hepatocytes; test: as above; format: in vitro ADME; conditions: reference compounds, 1 μM
Description: as §1, §2, §3, §4, §5, §6, §7, §8, §9

[5] = 10% mixtures of polar organic solvents in water
[6] = 50% PEG400 by volume in water, aqueous with cosolvent or surfactant or cyclodextrin, thermodynamic from solid, PEG400 (50%) by volume in water, read-out: Solubility
[7] = 50% ethanol by volume in water, aqueous with cosolvent or surfactant or cyclodextrin, thermodynamic from solid, ETHANOL (50%) by volume in water, read-out: Solubility
[8] = 50% propylene glycol by volume in water, aqueous with cosolvent or surfactant or cyclodextrin, thermodynamic from solid, PROPYLENE GLYCOL (50%) by volume in water, read-out: Solubility
[9] = mixtures of polar organic solvents with water

| Structure (SMILES) | half-life at 1 μM ([3]; pH 7.3, Half-Life 1st) | half-life at 1 μM ([3]; pH 7.3, Half-Life 2nd) | half-life at 1 μM ([3]; pH 7.3, Half-Life 3rd) | solubility [2, 5] | solubility [2, 6] | solubility [2, 7] | solubility [2, 8] | solubility [2, 9] | stability with human hepatocytes [4] | further results |
| --- | --- | --- | --- | --- | --- | --- | --- | --- | --- | --- |
| C[C@H](NP(=O)(OC[C@H]1O[C@@H](n2ccc(N)nc2=O)C(F)(F)C1O)Oc1ccccc1)C(=O)OCc1ccccc1 (stereo partly shown) [NUC-1031] | 1.22 h | 1.21 h | 1.37 h | – | – | – | – | – | – | solubility in water [1]: essentially insoluble in water; solubility ([2]; organic solvent or mixture, thermodynamic from solid, solvent DMSO, read-out: Assay (solubility)): > 217000 µg/mL; solubility ([2]; organic solvent or mixture, thermodynamic from solid, solvent NMP, read-out: Assay (solubility)): > 207000 µg/mL; solubility ([2]; organic solvent or mixture, thermodynamic from solid, solvent PEG 400, read-out: Assay (solubility)): 385000 µg/mL (≈ 663 mM); solubility ([2]; organic solvent or mixture, thermodynamic from solid, solvent Propylene glycol, read-out: Assay (solubility)): 371000 µg/mL (≈ 639 mM); Appearance ([2]; solvent DMSO): Clear solution; Appearance ([2]; solvent Ethanol): Solubilised quickly, after 30; Appearance ([2]; solvent Glycerol): API evident; Appearance ([2]; solvent NMP): Clear solution; Appearance ([2]; solvent PEG 400): Precipitation evident after 120; Appearance ([2]; solvent Propylene glycol): Precipitation evident after 30 |
| C[C@H](N[P@](=O)(OC[C@H]1O[C@@H](n2ccc(N)nc2=O)C(F)(F)C1O)Oc1ccccc1)C(=O)OCc1ccccc1 (stereo partly drawn) [compound 3, 2′-Deoxy-2′,2′-difluoro-D-cytidine-5′-O-[phenyl(benzyloxy-L-alaninyl)]-(S)-phosphate] | 0.675 h | 0.608 h | 0.583 h | significantly improved solubility | 32100 µg/mL (≈ 55.4 mM) | 34800 µg/mL (≈ 59.9 mM) | 11300 µg/mL (≈ 19.4 mM) | sufficient solubility | – | solubility ([2]; 10% PEG400 by volume in water, aqueous with cosolvent or surfactant or cyclodextrin, thermodynamic from solid, PEG400 (10%) by volume in water, read-out: Solubility): 460 µg/mL (≈ 0.792 mM); solubility ([2]; 10% ethanol by volume in water, aqueous with cosolvent or surfactant or cyclodextrin, thermodynamic from solid, ETHANOL (10%) by volume in water, read-out: Solubility): 270 µg/mL (≈ 0.465 mM); solubility ([2]; 10% propylene glycol by volume in water, aqueous with cosolvent or surfactant or cyclodextrin, thermodynamic from solid, PROPYLENE GLYCOL (10%) by volume in water, read-out: Solubility): 230 µg/mL (≈ 0.396 mM); difference in solubility between (S)-epimer and (R)-epimer ([2]; in a number of the solvent mixtures tested): over 100 fold |
| C[C@H](N[P@@](=O)(OC[C@H]1O[C@@H](n2ccc(N)nc2=O)C(F)(F)[C@@H]1O)Oc1ccccc1)C(=O)OCc1ccccc1 [compound 4, 2′-deoxy-2′,2′-difluoro-D-cytidine-5′-O-[phenyl(benzyloxy-L-alaninyl)]-(R)-phosphate] | 7.86 h | > 2 h | > 2 h | substantially insoluble | 270 µg/mL (≈ 0.465 mM) | 690 µg/mL (≈ 1.19 mM) | 110 µg/mL (≈ 0.189 mM) | substantially insoluble | – | half-life at 1 μM ([3]; pH 7.3, Half-Life Mean): > 2 h |
| CCN(CC)CCN1C(=O)CN=C(c2ccccc2F)c2cc(Cl)ccc21 [flurazepam, reference compound] | – | – | – | – | – | – | – | – | relatively unstable | – |
| C=CCN1CC[C@]23c4c5ccc(O)c4O[C@H]2C(=O)CC[C@@]3(O)[C@H]1C5 [naloxone, reference compound] | – | – | – | – | – | – | – | – | relatively unstable | – |
